Results filed as inconclusive are left out. The source made the active and inactive calls.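 How the source made its calls: active means compounds lowering the luciferase signal with a fitted half-maximal dose at most twice their top valid dose (cut at about 30 µM in these data); inconclusive means flat fits with moderate signal loss, or poor fits; inactive means the rest.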 *1 amine or outer side, *2 acyl side, *3 side chain or, on linkers, in order; H or OH if unused. Where a SMILES comes first, the peptide text is derived from it. Bridges are numbered along the chain shown (N, C = ends). [ ]: non-standard residue; d: D form. ξ: configuration not given here. X1 = CC[C@H](CCC[C@@H](O)[C@@H](C)C(=O)O[C@H](C)[C@@H](C)C/C=C(C)/C(=C\C(=O)[*:1])OC)O[*:2]; NMeξIle = CC[C@H](C)C(NC)C(=O)O; NMeV = CN[C@H](C(=O)O)C(C)C; NMeS = CN[C@@H](CO)C(=O)O
System: Clone20 osteoblast Shn3 3'UTR firefly luciferase, 24 h
Test: Shn3 3'UTR reporter inhibitors, dose response, cell-based, Clone20 osteoblasts, luminescence, dry powder, set 2 (AID 743417)

Row | SMILES | AC50
1 | NC(c1csc(NC(=O)Nc2cccc(C(F)(F)F)c2)n1)C1CCCCC1 (configuration not stated) | 4.81 µM
2 | Cc1ccc(C(=O)Nc2nc(-c3ccccn3)cs2)cc1S(=O)(=O)N1CCOCC1 | 0.838 µM
3 | COc1ccc(NC(=O)CSc2ncccc2C(=O)OC(C)C)cc1OC | 4.1 µM
4 | O=S1(=O)C=C(Sc2nnc(-c3ccccc3)o2)c2ccccc21 | 1.7 µM
5 | Cn1c2c(c(=O)n(C)c1=O)C(C(F)(F)F)(C(F)(F)F)N=C(c1ccc(Cl)cc1)N2 | 1.47 µM
6 | Cc1cc(CN2CCOCC2)c(O)c(C2(C)CCCCC2)c1 | 32.3 µM
7 | C=C1C(=O)c2sccc2C(c2ccc(OC)c(OC)c2)C1COC(C)=O (configuration not stated) | 0.662 µM
8 | O=S(=O)(NCc1ccncc1)c1ccc(F)c(F)c1 | 2.09 µM
9 | CCOc1ccc2nc(SC3CC(=O)N(c4ccc(C)cc4)C3=O)sc2c1 (configuration not stated) | 15.6 µM
10 | Oc1ccc(-c2nc(-c3ccc(O)c(O)c3)cs2)cc1 | 5.07 µM
11 | CCCCn1c(CN2CCN(c3ccccc3)CC2)nc2c1c(=O)n(C)c(=O)n2C | 2.05 µM
12 | COc1cc(NC(=O)c2cc3c(Cl)nc4ccccc4c3s2)cc(OC)c1OC | 24.4 µM
13 | C=C1C(=O)[C@]23C[C@H]1CC[C@H]2[C@]1(C)[C@@H](OC(C)=O)CC[C@@](C)(C(=O)OC)[C@H]1C[C@@H]3OC(C)=O | 5.99 µM
14 | Cc1ccc(C(=O)N2c3ccccc3N(Cc3ccccc3)C(=O)C2(C)C)cc1 | 6.92 µM
15 | CC[C@@H]1CCC[C@@H](O)[C@@H](C)C(=O)O[C@H](C)[C@@H](C)C/C=C(C)/C(OC)=C\C(=O)N(C)C([C@@H](C)CC)C(=O)N(C)[C@@H](C(C)C)C(=O)N(C)[C@@H](COC)C(=O)N2CCC[C@H]2C(=O)N(C)[C@@H](C(C)C)C(=O)N2CCC[C@H]2C(=O)O1 (some centres not stated) ([NMeξIle][NMeV][NMeS](Me)P[NMeV]P; linker N-C via X1) | < 0.26 µM
16 | CCN(CC)CCN1C(=O)/C(=C\c2ccc(Cl)c([N+](=O)[O-])c2)SC1=Nc1ccc(OC)cc1 | 2.11 µM
17 | CC[C@]12c3[nH]c4cc(CCC(=O)N(C)C)ccc4c3CCN1C(=O)[C@@H](CC(=O)NC/C=C(\C)CCC=C(C)C)C[C@@H]2C(=O)N1CCN(C(=O)c2ccco2)CC1 | 1.68 µM
18 | CCCCOC(=O)c1[nH]c2c(c1C)C(=O)CC(c1cc(OC)c(OC)c(OC)c1)C2 (configuration not stated) | 1.35 µM
19 | COc1ccccc1C(=O)Nc1nc2ccccc2[nH]1 | 0.868 µM
20 | CC1=C(C#N)C(C(F)(F)F)(C(F)(F)F)N=C(c2ccco2)N1 | 7.72 µM
21 | COc1ccc(C(NC(C)=O)c2cc(Cl)c3cccnc3c2O)cc1OC (configuration not stated) | 3.45 µM
22 | Cc1cc(C)c(-c2csc(NC(=O)CCCc3nc4ccccc4c(=O)[nH]3)n2)c(C)c1 | 2.97 µM
23 | Cc1ccc(Oc2c(C(N)=O)cc([N+](=O)[O-])cc2[N+](=O)[O-])cc1 | 11.9 µM
24 | CN(C)CCCNc1c2ccccc2nc2ccccc12 | 3.22 µM
25 | O=C(Nc1cccc(-c2ccc(N3CCCCC3)nn2)c1)C(F)(F)F | 9.07 µM
26 | CCOc1cc(N2CCOCC2)c(OCC)cc1NC(=O)c1cc(-c2ccco2)nc2ccccc12 | 8.94 µM

Row | SMILES | AC50
27 | Cc1ccc(C(=O)Nc2cccc3[nH]c(C(F)(F)F)nc23)cc1 | 3.93 µM
28 | Cc1ccc(OCCN2CCN(c3ncnc4sc(C)c(C)c34)CC2)cc1 | 0.754 µM
29 | COc1ccccc1-c1cc(C(F)(F)F)nc(S(=O)(=O)CCCC(=O)Nc2cc(C)on2)n1 | 6.57 µM
30 | CN1OC[C@@H]2CN[C@H](c3ccc(-c4cc5ccccc5o4)cc3)C[C@@H]21 | < 0.26 µM
31 | O=C(NCc1cccnc1)/C(=C\c1ccc(-c2ccc(Br)cc2)o1)S(=O)(=O)c1ccccc1 | 6.33 µM
32 | NC1=NC[C@@H](CC2CCCCC2)N1CCc1cc(C(F)(F)F)cc(C(F)(F)F)c1 | 9.92 µM
33 | O=C(NCc1ccc2c(c1)OCO2)c1nc(S(=O)(=O)Cc2ccccc2F)ncc1Cl | 5.19 µM
34 | CCS(=O)(=O)c1ncc(Cl)c(C(=O)Nc2ccc(S(=O)(=O)N(C)c3ccccc3)cc2)n1 | 0.308 µM
35 | CC(O)(c1ccncc1)c1nc(-c2cccc(C(F)(F)F)c2)cs1 (configuration not stated) | 5.34 µM
36 | COc1cccc(C(c2nnnn2-c2ccc3c(c2)OCCO3)N2CCC(n3c(=O)[nH]c4ccccc43)CC2)c1OC (configuration not stated) | 3.74 µM
37 | Cc1ccc(Nc2nc(NCC3CC3)nc3ccsc23)c(C)c1 | 5.82 µM
38 | O=[N+]([O-])c1ccc(Sc2cccc3cccnc23)c([N+](=O)[O-])c1 | 1.71 µM
39 | O=C(Nc1nc(-c2ccccc2)cs1)c1ccc(N2CCOCC2)c([N+](=O)[O-])c1 | 3.75 µM
40 | Cn1cc(S(=O)(=O)N2CCc3ccccc32)cc1C(=O)NC(C)(C)C | 1.25 µM
41 | O=[N+]([O-])/C=C/c1cn(Cc2ccc(Cl)cc2)c2ccccc12 | 8.32 µM
42 | O=C(c1cnc(N2CCN(c3ccccn3)CC2)c2ccccc12)N1CCN(c2cccc(Cl)c2)CC1 | 1.99 µM
43 | COc1ccccc1C(=O)Nc1nc(-c2ccc(S(=O)(=O)N3CCOCC3)cc2)cs1 | 1.21 µM
44 | CCc1c(C)nc2ncnn2c1N1CCN(S(=O)(=O)c2ccc(OC)cc2)CC1 | 1.16 µM
45 | CC(C)(C)NC(=O)CSc1nc2ccc(NC(=O)CSc3nnnn3Cc3ccccc3)cc2s1 | 3.26 µM
46 | CN(c1ccccc1)S(=O)(=O)c1cccc(NC(=O)c2ccc3ncsc3c2)c1 | 17.2 µM
47 | O=S(=O)(Nc1cc(Sc2ncn[nH]2)c(O)c2ccccc12)c1ccccc1 | 7.55 µM
48 | c1ccc(-c2cc(CSc3nc4ccccc4[nH]3)on2)cc1 | 3.76 µM
49 | Cc1cccc2sc(NNC(=O)c3ccc(S(=O)(=O)N4CC(C)CC(C)C4)cc3)nc12 (configuration not stated) | 2.57 µM
50 | Cc1ccccc1C(=O)NC(=S)Nc1ccc(N2CCN(C(=O)c3ccccc3)CC2)cc1 | 1.88 µM
51 | CCOC(=O)c1cn(CC(=O)Nc2cccc(Cl)c2C)nn1 | 4.65 µM
52 | O=C(O)c1cccc(COc2ccccc2Cl)c1 | 1.48 µM

Row | SMILES | AC50
53 | Oc1ccc(CCNc2ncnc3ccc(Cl)cc23)cc1 | 0.551 µM
54 | Cc1ccc(C)c(N2CCN(C(=O)CCCCCn3c(=S)[nH]c4ccc(N5CCOCC5)cc4c3=O)CC2)c1 | 1.99 µM
55 | O=C(OCn1ncc(Cl)c(Cl)c1=O)c1ccccc1Cl | 3.56 µM
56 | COc1ccc(OCC(O)CNCCOc2ccccc2OC)c(C(C)(C)C)c1 (configuration not stated) | 11.6 µM
57 | CNC(=O)c1nnsc1S(=O)c1ccc(Cl)cc1 (configuration not stated) | 2.02 µM
58 | Cc1ccc(NC(=O)C2CCC(C(C)(C)C)CC2)cc1S(=O)(=O)N1CCOCC1 (configuration not stated) | 12.1 µM
59 | Cc1cccc(-n2ncc(Cl)c(Cl)c2=O)c1 | 5.8 µM
60 | O=S(=O)(c1ccc(Cl)cc1)N1CCN(c2ncnc3sccc23)CC1 | 3.04 µM
61 | CCC(O)C1CCN(C(=O)c2cc(COc3ccc4ncccc4c3)on2)CC1 (configuration not stated) | 0.505 µM
62 | Cc1ccccc1C(=O)N1CCN(c2ccc(NC(=O)c3ccc4c(c3)OCCO4)cc2)CC1 | 2.17 µM
63 | Cc1ccc(S(=O)(=O)N2CCN(c3ncnc4sccc34)CC2)cc1C | 3.53 µM
64 | CCOC(=O)N1CCC(NC(=O)C2CCCN(Cc3nc(-c4cccc(Cl)c4)oc3C)C2)CC1 (configuration not stated) | 9.5 µM
65 | O=C(Nc1ccccc1Cc1ccccc1)c1ccccc1NS(=O)(=O)c1ccc(Cl)s1 | 8.18 µM
66 | COc1cnc(-c2ccccn2)nc1NC(C)C | 2.81 µM
67 | CCOC(=O)C1CCCN(S(=O)(=O)c2ccc(S(=O)(=O)N3CCCC3)cc2)C1 (configuration not stated) | 0.821 µM
68 | COc1ccccc1CNc1nc(NCc2ccccc2SC)c2sccc2n1 | 4.48 µM
69 | S=C(NNc1ccnc2cc(Cl)ccc12)Nc1ccc(Cl)cc1Cl | 4.9 µM
70 | CCOc1cc(CNCc2ccccc2)ccc1OCc1ccc(Cl)cc1 | 6.69 µM
71 | COc1cc(CC(=O)Nc2nc(-c3ccc(F)c(F)c3)cs2)cc(OC)c1OC | 3.92 µM
72 | CC(NNC(=S)N1CCN(c2ccccn2)CC1)c1nccc2ccccc12 (configuration not stated) | < 0.26 µM
73 | CC(C)=CCC/C(C)=C/CNC(=O)C[C@H]1C[C@H](C(=O)N(C(C)C)C(C)C)[C@@]2(C)c3[nH]c4cc(CCC(=O)N(C)C)ccc4c3CCN2C1=O | 2.05 µM
74 | c1ccc(-c2ccc(-c3nc(-c4ccccn4)no3)cc2)cc1 | 3.75 µM
75 | Cc1ccc(S(=O)(=O)c2ccc([N+](=O)[O-])cn2)cc1 | 3.85 µM
76 | COc1cc(C(=O)NC2CCCc3c2cnn3-c2ccccc2F)cc(OC)c1OC (configuration not stated) | 0.781 µM
77 | CCCCC(=O)NC(c1ccccc1)c1ccc2cccnc2c1O (configuration not stated) | 2.35 µM
78 | CN(C)CCN1C(=O)c2cccc3cc([N+](=O)[O-])cc(c23)C1=O | 1.11 µM

Row | SMILES | AC50
79 | COc1cccc(CN(C)C(=O)c2ccc(OCC(=O)Nc3cccc(C(F)(F)F)c3)c(OC)c2)c1 | 4.93 µM
80 | Cc1cccc(/C=C(\c2nc3ccccc3[nH]2)S(=O)(=O)c2ccccc2)c1 | 4.5 µM
81 | O=C(CC(O)(C(F)(F)F)C(F)(F)F)Nc1ccc(Cl)c(Cl)c1 | 4.97 µM
82 | CC(=O)N1CCOc2cc(S(=O)(=O)NCc3ccc(F)cc3)c(C)cc21 | > 70 µM (inactive)
83 | CCCc1nc2ccc(Br)cc2c(=O)n1-c1ccc([N+](=O)[O-])c(C(F)(F)F)c1 | 15.7 µM
84 | O=C(/C(=C/c1ccc(Cl)cc1)c1nc2ccccc2[nH]1)c1cccs1 | 2.66 µM
85 | O=C(Nc1ccc2nc3n(c(=O)c2c1)CCCCC3)c1c(F)ccc([N+](=O)[O-])c1F | 2.3 µM
86 | Cc1ccc(CNc2nc(NCC3CC3)nc3ccsc23)c(C)c1 | 3.95 µM
87 | CC(C)OC(=O)c1ccc(NCc2cc(O)ccc2O)cc1Cl | 2.15 µM
88 | COc1ccc(C(=O)C(C)OC(=O)c2cccc(S(=O)(=O)Nc3cc(Cl)c(OC)cc3OC)c2)cc1 (configuration not stated) | 5.54 µM
89 | COc1cccc(-c2nc(NC3CCCC3)c3ccccc3n2)c1O | 25 µM
90 | CCC1CSC(Nc2ccc(C(=O)/C=C/c3ccc(OC)c(OC)c3)cc2)=N1 (configuration not stated) | 4.47 µM
91 | O=C1/C(=C/c2ccccc2)C[C@@]2(O)[C@H]3Cc4ccc(O)c5c4[C@@]2(CCN3CC2CC2)C1O5 (some centres not stated) | 4.64 µM
92 | CCOc1cccc(CNCCc2c(C)[nH]c3ccc(OC(F)(F)F)cc23)c1O | 0.611 µM
93 | CCCCC(=O)NC(c1ccccc1OC)c1ccc2cccnc2c1O (configuration not stated) | 1.19 µM
94 | COc1ccc(C[C@H]2NC[C@H](O)[C@H]2OC(C)=O)cc1 | 0.882 µM
95 | CCC1CCCCN1S(=O)(=O)c1ccc(NC(=O)c2ccncc2)cc1 (configuration not stated) | 3.43 µM
96 | Clc1ccc(C[n+]2cc(-c3ccccc3)n3c2CCCCC3)c(Cl)c1 | 1.2 µM
97 | Cn1c(=O)c2c(nc(NCc3ccco3)n2CCc2ccccc2)n(C)c1=O | 2.34 µM
98 | Cc1cc(C)nc(SCC(=O)Nc2ccnc3ccccc23)n1 | 0.462 µM
99 | c1ccc(-c2noc(-c3ccc4ccccc4c3)n2)nc1 | 1.98 µM
100 | COc1cccc(CNc2nc(NCC3CC3)nc3ccsc23)c1 | 5.86 µM
101 | CCN(CC)C(=O)c1oc2ccc(S(=O)(=O)N3CC(C)CC(C)C3)cc2c1C (configuration not stated) | 1.02 µM
102 | Cc1cc(C)nc(S/C=C/C(=O)c2ccccc2)n1 | 1.72 µM
